Patent EP0623339B1, “Use of 4-,4- and 5-, or 4- and 6-substituted derivatives of resorcin in cosmetic or dermopharmaceutical compositions for depigmentation” (L'OREAL, priority 1993, dated 1994)

Test system: tyrosinase de champignons
Assay: in vitro inhibition test of tyrosinase activity (dopachrome formation followed at 475 nm)
Assay type: biochemical
Conditions: lowering of maximal dopachrome formed (OD 475 nm at plateau) vs. no inhibitor; inhibitor at 50 % molaire relative to tyrosine; pH = 6,5; 25°C
Excerpt: Certains des composés de formule générale (I) ont été étudiés comparativement à l'hydroquinone à quantité molaire équivalente dans le test d'inhibition in vitro de l'activité de la tyrosinase.
Selon ce test on suit par spectrométrie visible à 475 nm la quantité de dopachrome formée au cours de la chaîne de réactions de transformation de la tyrosine en mélanines. Ces réactions sont catalysées in vitro par la tyrosinase de champignons, en présence d'un co-substrat réducteur (par exemple la L-dopa en petite quantité) pour initier la réaction d'hydroxylation de la L-tyrosine en L-dopa, laquelle est ensuite oxydée catalytiquement en dopaquinone puis en dopachrome, produit intermédiaire avant les réactions d'oxydation non enzymatiques aboutissant à la formation des mélanines.
On mesure donc la concentration en dopachrome formé au cours du temps en présence et en absence de l'inhibiteur. […]
On exprime l'effet d'inhibition par l'abaissement de la quantité maximale de dopachrome formée (valeur de densité optique à 475 nm lue au plateau de la courbe) par rapport à la quantité obtenue en l'absence d'inhibiteur. […]
• cuve de référence : 3 ml de A • cuve d'essai : 1 ml de B 0,1 ml de C 1,85ml de A + E • homogénéiser et équilibrer à 25°C • ajouter 0,05 ml de D • mélanger rapidement et observer la cinétique par la mesure de l'absorbance à 475 nm en fonction du temps.

## Oc1ccc(O)cc1 [hydroquinone]
  % d'inhibition: -33%
